Data taken from patent US20040176474A1 (priority 2003, published 2004).

Legend:
[1] = Adiabatic compression test; type: physicochemical
Procedure: Adiabatic Compression Test
This test determines the initiation sensitivity of the material to sudden gas compression, such as liquid inertia compressing entrained gas bubbles during transportation or hydrostatic pressure heads which form when pumping liquid or opening and closing valves. The test is performed with a plunger to rapidly compress gas from a drop height of at least 100 cm within a cylindrical chamber containing the sample. Energy is delivered to the plunger with a drop weight. A failed test is one in which any smoke, discoloration, char, spark or audible report result from the test. Neat propargyl bromide and the single solvent formulation pass the test at drop height of 150 cm in nitrogen and fail the test in air at drop heights of 100 cm and 150 cm.

[2] = UN Test Series 3 overall conclusion; type: physicochemical; conditions: sensitivity for transportation
Source text: UN Test Series 3: Drop Impact
Conclusion of UN Tests Series 3 Results:

For `C#CCBr` [neat propargyl bromide, 3-bromopropyne], which “Adiabatic compression test result (pass/fail)” value ([1]; drop height of 150 cm in nitrogen) is on record?
The value was “pass”.

What about the “Adiabatic compression test result (pass/fail)” value ([1]; in air at drop heights of 100 cm and 150 cm) of the same compound?
The value was “fail”.

What about the “UN Test Series 3 conclusion” value [2] of the same compound?
Its value is “too sensitive to mechanical impact to allow transportation”.
